Results reported in patent US20070128217A1 (priority 2003, published 2007).

Legend:
[1] = test system: control sera (pooled serum of ten healthy LUMC hospital workers; commercial negative donor pooled serum from the Dutch bloodbank); format: binding, human; parameters: Binding of Control serum LUMC to linear peptides / Binding of Control serum Blood-bank to linear peptides / Binding of Control serum LUMC to looped peptides / Binding of Control Serum Blood-Bank to Looped peptides / Binding of Control serum LUMC to linear peptides of the protein M of SARS-CoV Urbani / Binding of Control serum Blood-bank to linear peptides of the protein M of SARS-CoV Urbani / Binding of Control serum LUMC to looped peptides of the protein M of SARS-CoV Urbani / Binding of Control Serum Blood-Bank to Looped peptides of the protein M of SARS-CoV Urbani: unit not given here
[2] = test system: rabbit serum obtained by immunizing a rabbit with the SARS-CoV strain Frankfurt 1; format: binding; parameters: Binding of a rabbit serum to linear peptides / Binding of a rabbit serum to looped peptides / Rabbit serum linear peptides / Rabbit serum looped peptides / Binding of a rabbit serum to linear peptides of protein N of SARS-CoV Urbani (Rabbit serum linear peptides) / Binding of a rabbit serum to looped/cyclic peptides of protein N of SARS-CoV Urbani (Rabbit serum looped peptides): unit not given here
[3] = test system: antibodies in sera from SARS patients (sera 1a, 1b, 2, 6, 37, 62, London, SARS-yellow, SARS-green); format: binding, human; parameters: Binding of serum 6 to linear peptides of protein X1 of SARS-CoV Urbani / Binding of serum 37 to linear peptides of protein X1 of SARS-CoV Urbani / Binding of serum 6 to looped/cyclic peptide (PEPSCAN-ELISA) / Binding of serum 37 to looped/cyclic peptide (PEPSCAN-ELISA) / Binding of serum 37 to looped/cyclic peptides of protein X1 of SARS-CoV Urbani / Binding of serum 6 to linear peptides of protein X2 / Binding of serum 37 to linear peptides of protein X2 / Binding of serum 37 to looped/cyclic peptides of protein X2 of SARS-CoV Urbani / Binding of serum 6 to linear peptides of protein M of SARS-CoV Urbani / Binding of serum 37 to linear peptides of protein M of SARS-CoV Urbani / Binding of serum 6 to looped/cyclic peptides of protein M of SARS-CoV Urbani / Binding of serum 37 to looped/cyclic peptides of protein M of SARS-CoV Urbani / Binding of serum 6 to linear peptides of protein X3 of SARS-CoV Urbani / Binding of serum 37 to linear peptides of protein X3 of SARS-CoV Urbani / Binding of serum 37 to looped/cyclic peptides of protein X3 of SARS-CoV Urbani / Binding of serum 6 to linear peptides of protein X4 of SARS-CoV Urbani / Binding of serum 37 to linear peptides of protein X4 of SARS-CoV Urbani / Binding of serum 37 to looped/cyclic peptides of protein X4 of SARS-CoV Urbani / Binding of serum 6 to linear peptides of protein X5 of SARS-CoV Urbani / Binding of serum 37 to linear peptides of protein X5 of SARS-CoV Urbani / Binding of serum 37 to looped/cyclic peptides of protein X5 of SARS-CoV Urbani / Binding of serum 6 to linear peptides of protein N of SARS-CoV Urbani / Binding of serum 37 to linear peptides of protein N of SARS-CoV Urbani / Binding of serum 6 to linear peptide (PEPSCAN-ELISA) / Binding of serum 1a to looped/cyclic peptides of protein N of SARS-CoV Urbani / Binding of serum 1b to looped/cyclic peptides of protein N of SARS-CoV Urbani / Binding of serum 2 to looped/cyclic peptides of protein N of SARS-CoV Urbani / Binding of serum 6 to looped/cyclic peptides of protein N of SARS-CoV Urbani / Binding of serum 37 to looped/cyclic peptides of protein N of SARS-CoV Urbani / Binding of serum 62 to looped/cyclic peptides of protein N of SARS-CoV Urbani / Binding of serum London to looped/cyclic peptides of protein N of SARS-CoV Urbani / Binding of serum SARS-green to looped/cyclic peptides of protein N of SARS-CoV Urbani: unit not given here

With RSVSPKLFIRQEEVQ the “Binding of Control Serum Blood-Bank to Looped peptides” value [1] was 0.6, the “Binding of Control serum Blood-bank to linear peptides” value [1] was 0.5 and the “Binding of Control serum LUMC to linear peptides” value [1] was 0.4. For the same sequence, the “Binding of Control serum LUMC to looped peptides” value [1] was 0.7, the “Rabbit serum linear peptides” value [2] was 0.4 and the “Rabbit serum looped peptides” value [2] was 0.4. The “Binding of serum 1a to linear peptides of protein X4 of SARS-CoV Urbani” value [3] was 0.7, the “Binding of serum 1a to looped/cyclic peptides of protein X4 of SARS-CoV Urbani” value [3] was 0.6 and the “Binding of serum 1b to linear peptides of protein X4 of SARS-CoV Urbani” value [3] was 0.4. For the same sequence, the “Binding of serum 1b to looped/cyclic peptides of protein X4 of SARS-CoV Urbani” value [3] was 0.5, the “Binding of serum 2 to linear peptides of protein X4 of SARS-CoV Urbani” value [3] was 0.4 and the “Binding of serum 2 to looped/cyclic peptides of protein X4 of SARS-CoV Urbani” value [3] was 0.5. For the same sequence, the “Binding of serum 6 to linear peptides of protein X4 of SARS-CoV Urbani” value [3] was 0.5, the “Binding of serum 6 to looped/cyclic peptides of protein X4 of SARS-CoV Urbani” value [3] was 0.5 and the “Binding of serum 37 to linear peptides of protein X4 of SARS-CoV Urbani” value [3] was 0.6. The “Binding of serum 37 to looped/cyclic peptides of protein X4 of SARS-CoV Urbani” value [3] was 0.7, the “Binding of serum 62 to linear peptides of protein X4 of SARS-CoV Urbani” value [3] was 0.7 and the “Binding of serum 62 to looped/cyclic peptides of protein X4 of SARS-CoV Urbani” value [3] was 0.6. The “Binding of serum London to linear peptides of protein X4 of SARS-CoV Urbani” value [3] was 0.6, the “Binding of serum London to looped/cyclic peptides of protein X4 of SARS-CoV Urbani” value [3] was 0.3 and the “Binding of serum SARS-green to linear peptides of protein X4 of SARS-CoV Urbani” value [3] was 0.5. The “Binding of serum SARS-green to looped/cyclic peptides of protein X4 of SARS-CoV Urbani” value [3] was 0.4, the “Binding of serum SARS-yellow to linear peptides of protein X4 of SARS-CoV Urbani” value [3] was 0.2 and the “Binding of serum SARS-yellow to looped/cyclic peptides of protein X4 of SARS-CoV Urbani” value [3] was 0.5.
With RTRSMWSFNPETNIL the “Binding of Control Serum Blood-Bank to Looped peptides of the protein M of SARS-CoV Urbani” value [1] was 0.7, the “Binding of Control serum Blood-bank to linear peptides of the protein M of SARS-CoV Urbani” value [1] was 0.9 and the “Binding of Control serum LUMC to linear peptides of the protein M of SARS-CoV Urbani” value [1] was 0.7. For the same sequence, the “Binding of Control serum LUMC to looped peptides of the protein M of SARS-CoV Urbani” value [1] was 0.7, the “Rabbit serum linear peptides” value [2] was 0.6 and the “Rabbit serum looped peptides” value [2] was 0.4. For the same sequence, the “Binding of serum 1a to linear peptides of protein M of SARS-CoV Urbani” value [3] was 0.9, the “Binding of serum 1a to looped/cyclic peptides of protein M of SARS-CoV Urbani” value [3] was 0.7 and the “Binding of serum 1b to linear peptides of protein M of SARS-CoV Urbani” value [3] was 0.8. For the same sequence, the “Binding of serum 1b to looped/cyclic peptides of protein M of SARS-CoV Urbani” value [3] was 0.3, the “Binding of serum 2 to linear peptides of protein M of SARS-CoV Urbani” value [3] was 0.8 and the “Binding of serum 2 to looped/cyclic peptides of protein M of SARS-CoV Urbani” value [3] was 0.8. The “Binding of serum 6 to linear peptides of protein M of SARS-CoV Urbani” value [3] was 0.4, the “Binding of serum 6 to looped/cyclic peptides of protein M of SARS-CoV Urbani” value [3] was 0.7 and the “Binding of serum 37 to linear peptides of protein M of SARS-CoV Urbani” value [3] was 0.9. The “Binding of serum 37 to looped/cyclic peptides of protein M of SARS-CoV Urbani” value [3] was 0.9, the “Binding of serum 62 to linear peptides of protein M of SARS-CoV Urbani” value [3] was 0.9 and the “Binding of serum 62 to looped/cyclic peptides of protein M of SARS-CoV Urbani” value [3] was 0.9. The “Binding of serum London to linear peptides of protein M of SARS-CoV Urbani” value [3] was 0.3, the “Binding of serum London to looped/cyclic peptides of protein M of SARS-CoV Urbani” value [3] was 0.2 and the “Binding of serum SARS-green to linear peptides of protein M of SARS-CoV Urbani” value [3] was 0.3. For the same sequence, the “Binding of serum SARS-green to looped/cyclic peptides of protein M of SARS-CoV Urbani” value [3] was 0.0, the “Binding of serum SARS-yellow to linear peptides of protein M of SARS-CoV Urbani” value [3] was 0.1 and the “Binding of serum SARS-yellow to looped/cyclic peptides of protein M of SARS-CoV Urbani” value [3] was 0.7.
